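Method: 48-hour compound exposure of cells in 96-well plates, five concentrations, linear interpolation of endpoints. The concentration for 50% growth inhibition is given as GI50.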 Activity calls are given as the source filed them. Cut-off read from the data, not from the text of the source: active = GI50 up to about 1.1 µM and inactive = higher.
Assays:
Test in all cases: NCI-60 cell line screen, 48 h
[1] = system: UO-31
[2] = system: SW-620
[3] = system: HL-60
[4] = system: DLD-1
[5] = system: M19-MEL
[6] = system: MOLT-4
[7] = system: LXFL 529
[8] = system: SK-OV-3
[9] = system: UACC-257
[10] = system: Malme-3M
[11] = system: RXF 631
[12] = system: HOP-62
[13] = system: EKVX
[14] = system: COLO 205
[15] = system: SF-295
[16] = system: ACHN
[17] = system: NCI-H23
[18] = system: HCT-15
[19] = system: OVCAR-3
[20] = system: NCI-H226
[21] = system: TK-10
[22] = system: NCI-H522
[23] = system: A549
[24] = system: SNB-78
[25] = system: HCC 2998
[26] = system: SK-MEL-2
[27] = system: SF-539
[28] = system: M14
[29] = system: A498
[30] = system: RPMI-8226
[31] = system: SN12C
[32] = system: K562
[33] = system: CAKI-1
[34] = system: UACC-62
[35] = system: OVCAR-4
[36] = system: SNB-19
[37] = system: CCRF-CEM
[38] = system: IGROV-1
[39] = system: HCT-116
[40] = system: SK-MEL-5
[41] = system: DMS-273
[42] = system: SK-MEL-28
[43] = system: LOX IMVI
[44] = system: OVCAR-8
[45] = system: DMS-114
[46] = system: HT-29
[47] = system: SR
[48] = system: HOP-18
[49] = system: U-251
[50] = system: 786-0
[51] = system: SF-268
[52] = system: KM-20L2
[53] = system: HOP-92
[54] = system: SNB-75
[55] = system: OVCAR-5
[56] = system: RXF 393
[57] = system: XF498
[58] = system: KM12
[59] = system: NCI-H460

COCCCNC(=O)C1C(=O)C(=O)N(CCCOC)C1=O (configuration not stated)
GI50 [1]: > 100 µM (inactive) | GI50 [2]: > 100 µM (inactive) | GI50 [3]: > 100 µM (inactive) | GI50 [4]: > 100 µM (inactive) | GI50 [5]: > 100 µM (inactive) | GI50 [6]: > 100 µM (inactive) | GI50 [7]: > 100 µM (inactive) | GI50 [8]: > 100 µM (inactive) | GI50 [9]: > 100 µM (inactive) | GI50 [10]: > 100 µM (inactive) | GI50 [11]: > 100 µM (inactive) | GI50 [12]: > 100 µM (inactive) | GI50 [13]: > 100 µM (inactive) | GI50 [14]: > 100 µM (inactive) | GI50 [15]: > 100 µM (inactive) | GI50 [16]: > 100 µM (inactive) | GI50 [17]: > 100 µM (inactive) | GI50 [18]: > 100 µM | GI50 [19]: > 100 µM (inactive) | GI50 [20]: > 100 µM (inactive) | GI50 [21]: > 100 µM (inactive) | GI50 [22]: > 100 µM (inactive) | GI50 [23]: > 100 µM (inactive) | GI50 [24]: > 100 µM (inactive) | GI50 [25]: > 100 µM (inactive) | GI50 [26]: > 100 µM (inactive) | GI50 [27]: > 100 µM (inactive) | GI50 [28]: > 100 µM (inactive) | GI50 [29]: > 100 µM (inactive) | GI50 [30]: > 100 µM (inactive) | GI50 [31]: > 100 µM (inactive) | GI50 [32]: > 100 µM (inactive) | GI50 [33]: > 100 µM (inactive) | GI50 [34]: > 100 µM (inactive) | GI50 [35]: > 100 µM (inactive) | GI50 [36]: > 100 µM (inactive) | GI50 [37]: > 100 µM (inactive) | GI50 [38]: > 100 µM (inactive) | GI50 [39]: > 100 µM (inactive) | GI50 [40]: > 100 µM (inactive) | GI50 [41]: > 100 µM (inactive) | GI50 [42]: > 100 µM (inactive) | GI50 [43]: > 100 µM (inactive) | GI50 [44]: > 100 µM (inactive) | GI50 [45]: > 100 µM (inactive) | GI50 [46]: > 100 µM (inactive) | GI50 [47]: > 100 µM (inactive) | GI50 [48]: > 100 µM (inactive) | GI50 [49]: > 100 µM (inactive) | GI50 [50]: > 100 µM (inactive) | GI50 [51]: > 100 µM (inactive) | GI50 [52]: > 100 µM (inactive) | GI50 [53]: > 100 µM (inactive) | GI50 [54]: > 100 µM (inactive) | GI50 [55]: > 100 µM (inactive)

Cc1nc(-c2nc(C)c(C(=O)/C=C/c3ccc(N(C)C)cc3)s2)sc1C(=O)/C=C/c1ccc(N(C)C)cc1
GI50 [56]: > 100 µM (inactive) | GI50 [1]: > 100 µM (inactive) | GI50 [2]: 31.2 µM (inactive) | GI50 [3]: 46 µM (inactive) | GI50 [4]: 29.5 µM (inactive) | GI50 [5]: 51.1 µM (inactive) | GI50 [6]: > 100 µM (inactive) | GI50 [7]: 34.8 µM (inactive) | GI50 [8]: > 100 µM (inactive) | GI50 [9]: > 100 µM (inactive) | GI50 [10]: 66.4 µM (inactive) | GI50 [11]: > 100 µM (inactive) | GI50 [57]: 23.4 µM (inactive) | GI50 [12]: > 100 µM (inactive) | GI50 [13]: > 100 µM (inactive) | GI50 [14]: > 100 µM (inactive) | GI50 [15]: 31.9 µM (inactive) | GI50 [16]: > 100 µM (inactive) | GI50 [17]: > 100 µM (inactive) | GI50 [18]: 37.8 µM | GI50 [19]: > 100 µM (inactive) | GI50 [20]: > 100 µM (inactive) | GI50 [21]: > 100 µM (inactive) | GI50 [22]: 31.3 µM (inactive) | GI50 [23]: 44.2 µM (inactive) | GI50 [58]: 40.9 µM (inactive) | GI50 [25]: > 100 µM (inactive) | GI50 [26]: > 100 µM (inactive) | GI50 [27]: 41.7 µM (inactive) | GI50 [28]: 38.5 µM (inactive) | GI50 [59]: > 100 µM (inactive) | GI50 [31]: > 100 µM (inactive) | GI50 [32]: 33.4 µM (inactive) | GI50 [33]: > 100 µM (inactive) | GI50 [34]: 18.5 µM (inactive) | GI50 [35]: 46 µM (inactive) | GI50 [36]: 64.1 µM (inactive) | GI50 [37]: > 100 µM (inactive) | GI50 [38]: 31 µM (inactive) | GI50 [39]: 29.3 µM (inactive) | GI50 [41]: 39.1 µM (inactive) | GI50 [42]: 67.3 µM (inactive) | GI50 [43]: 38.3 µM (inactive) | GI50 [44]: > 100 µM (inactive) | GI50 [45]: > 100 µM (inactive) | GI50 [46]: > 10 µM (inactive) | GI50 [47]: > 100 µM (inactive) | GI50 [49]: > 100 µM (inactive) | GI50 [50]: 54 µM (inactive) | GI50 [51]: > 100 µM (inactive) | GI50 [52]: > 100 µM (inactive) | GI50 [55]: > 100 µM (inactive)

Source: ChEMBL document CHEMBL1201862, “PubChem BioAssay data set” (2004)
